In general, Kd refers to the constant that tells how readily two partners part at equilibrium.

T1 sequence (P9WFC9 whole entry): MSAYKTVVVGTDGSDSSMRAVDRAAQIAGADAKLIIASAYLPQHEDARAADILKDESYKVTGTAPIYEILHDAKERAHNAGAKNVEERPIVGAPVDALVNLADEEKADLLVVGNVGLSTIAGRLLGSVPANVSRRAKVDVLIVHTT

The experiment has as its target T1, Universal stress protein (USP, Rv1636) (Mycobacterium tuberculosis, UniProt P9WFC9).
T1 construct: His-tagged Rv1636
Put plainly: biochemical. In kind it is binding.
Turning to `COc1cc(/C=C/C(=O)CC(=O)/C=C/c2ccc(O)c(OC)c2)ccc1O` [Curcumin], the dissociation constant Kd is 17.4 ± 0.8 µM.

Take `COc1cc2c(cc1OC)-c1cc(NCCCCN)nc(=O)n1CC2` [compound 19, 2-((4-aminobutyl)amino)-9,10-dimethoxy-6,7-dihydro-4H-pyrimido[6,1-a]isoquinolin-4-one]: the Kd is 998 ± 82 µM. In turn, `NC(=O)NCCC[C@@H](NC(=O)CCn1ccc2c(Cl)cccc21)C(=O)O` [compound 20, (R)-2-(3-(4-chloro-1H-indol-1-yl)propanamido)-5-ureidopentanoic acid] yielded a Kd of 1720 ± 731 µM.

For the origin of these results see article PMC8126637 (Frontiers in Molecular Biosciences, 2021).
